Results on four compounds are retold here after patent publication US9951028B2, “Agricultural chemicals” (REDAG CROP PROTECTION LTD, priority 2013, dated 2018).

Structures are written as SMILES.

Common to all, as to format: in vivo
For experiment [1], the system named is Abutilon theophrasti (China Jute). Put plainly: Herbicidal efficacy screen, corrected necrosis. Conditions: for control over A. theophrasti: after 10 days, Table 5.
Experiment [2] has as its system Amaranthus retroflexus (redroot pigweed). As to the kind of experiment: Herbicidal efficacy screen, corrected necrosis.
Experiment [3] concerns Capsella bursa-pastoris, (shepherd's-purse). Put plainly: Herbicidal efficacy screen, corrected necrosis.
The subject of experiment [4] is A. retroflexus, A. theophrasti, C. bursa pastoris. As to the kind of experiment: Herbicidal efficacy screen, text summary of table 2 over all target weed species. Conditions: certain weed species, after 1 day. The source says:
(§1) Certain compounds of the invention were screened for herbicidal efficacy against target plants: Amaranthus retroflexus (redroot pigweed), Abutilon theophrasti (China Jute): Capsella bursa-pastoris, (shepherd's-purse) Echinochloa crus-galli, Hordeum vulgare (Barley),

Another experiment deals with Echinochloa crus-galli. Put plainly: Herbicidal efficacy screen, corrected necrosis. To be noted: Table 5; for control over E. crus galli: after 10 days.
For another experiment, the system named is Hordeum vulgare (Barley). Put plainly: Herbicidal efficacy screen, corrected necrosis. Conditions: Table 5.
The test system of experiment [5] is A. theophrasti, E. crus galli, H. vulgare. Put plainly: Herbicidal efficacy screen, summary of tables 3-5 over all target weed species. Conditions: table 3.
Excerpt: as §1

Setting [6] is: 6.25 g/ha, day 1 post application.
The mark [7] stands for this setting: 6.25 g/ha, day 7 post application.
The mark [8] stands for this setting: 12.5 g/ha, day 1 post application.
[9] abbreviates: 12.5 g/ha, day 7 post application.
Where [10] appears, read: 25 g/ha, day 1 post application.
Where [11] appears, read: 25 g/ha, day 7 post application.
[12] abbreviates: 50 g/ha, day 1 post application.
The mark [13] stands for this setting: 50 g/ha, day 7 post application.
Setting [14] is: 100 g/ha, day 1 post application.
The mark [15] stands for this setting: 100 g/ha, day 7 post application.

`CC(C)C(C)S(=O)(=O)NC(=O)c1cc(-n2c(=O)cc(C(F)(F)F)n(C)c2=O)c(F)cc1Cl` (stereo not shown) [Compound 26, 2-Chloro-N-(1,2-dimethylpropylsulfonyl)-4-fluoro-5-[3-methyl-2,6-dioxo-4-(trifluoromethyl)pyrimidin-1-yl]benzamide]: the “Average of corrected necrosis” value is “C (C represents a percentage increase in necrosis relative to the control of 0.1-50)” in experiment [1] (setting [6]); “A (A represents a percentage inhibition of 80-100)” in experiment [1] (setting [7]); 0% in experiment [1] (setting [8]); “A (A represents a percentage inhibition of 80-100)” in experiment [1] (setting [9]); “C (C represents a percentage increase in necrosis relative to the control of 0.1-50)” in experiment [1] (setting [10]); “A (A represents a percentage inhibition of 80-100)” in experiment [1] (setting [11]). Also, the “Average of corrected necrosis” value in experiment [1] (setting [12]) is on record as “C (C represents a percentage increase in necrosis relative to the control of 0.1-50)”; in experiment [1] (setting [13]), “A (A represents a percentage inhibition of 80-100)”; in experiment [1] (setting [14]), “B (B represents a percentage inhibition of 50-80)”; in experiment [1] (setting [15]), “A (A represents a percentage inhibition of 80-100)”; in experiment [2] (setting [6]), “C (C represents a percentage increase in necrosis relative to the control of 0.1-50)”; in experiment [2] (setting [7]), “A (A represents a percentage inhibition of 80-100)”. Moreover, the “Average of corrected necrosis” value in experiment [2] (setting [8]) is on record as “C (C represents a percentage increase in necrosis relative to the control of 0.1-50)”; in experiment [2] (setting [9]), “A (A represents a percentage inhibition of 80-100)”; in experiment [2] (setting [10]), “C (C represents a percentage increase in necrosis relative to the control of 0.1-50)”; in experiment [2] (setting [11]), “A (A represents a percentage inhibition of 80-100)”; in experiment [2] (setting [12]), “C (C represents a percentage increase in necrosis relative to the control of 0.1-50)”; in experiment [2] (setting [13]), “A (A represents a percentage inhibition of 80-100)”. The “Average of corrected necrosis” value in experiment [2] (setting [14]) was “C (C represents a percentage increase in necrosis relative to the control of 0.1-50)”; in experiment [2] (setting [15]) it was “A (A represents a percentage inhibition of 80-100)”; in experiment [3] (setting [6]), “C (C represents a percentage increase in necrosis relative to the control of 0.1-50)”; in experiment [3] (setting [7]) it was “A (A represents a percentage inhibition of 80-100)”; in experiment [3] (setting [8]) it was “C (C represents a percentage increase in necrosis relative to the control of 0.1-50)”; in experiment [3] (setting [9]), 0%. The “Average of corrected necrosis” value in experiment [3] (setting [10]) was “C (C represents a percentage increase in necrosis relative to the control of 0.1-50)”; in experiment [3] (setting [11]) it was “A (A represents a percentage inhibition of 80-100)”; in experiment [3] (setting [12]), “C (C represents a percentage increase in necrosis relative to the control of 0.1-50)”; in experiment [3] (setting [13]) it was “A (A represents a percentage inhibition of 80-100)”; in experiment [3] (setting [14]) it was “C (C represents a percentage increase in necrosis relative to the control of 0.1-50)”; in experiment [3] (setting [15]) it was “A (A represents a percentage inhibition of 80-100)”. Also, in experiment [4], the “control compared with the reference compound (saflufenacil)” value was “better control”.
As for `CSc1c(C(F)(F)F)ccc(CNc2nonc2C)c1C` [Compound 47, 4-Methyl-N-[[2-methyl-3-methylsulfanyl-4-(trifluoromethyl)phenyl]methyl]-1,2,5-oxadiazol-3-amine], in experiment [1], the “control over A. theophrasti” value is recorded as “good control”. The “control over E. crus galli” value in the experiment with Echinochloa crus-galli is reported as “good control”. Further, the “control of E. crus galli relative to the reference compound 48” value in the experiment on Echinochloa crus-galli (at low dosages) is “improved control”. Also, the “control over H. vulgare” value in the experiment on Hordeum vulgare (Barley) is recorded as “good control”. Further, in the experiment on Hordeum vulgare (Barley) (at low dosages), the “control of H. vulgare relative to the reference compound 48” value was “improved control”.
For `CSc1c(C(F)(F)F)ccc(C(=O)Nc2nonc2C)c1C` [Compound 48, 2-Methyl-N-(4-methyl-1,2,5-oxadiazol-3-yl)-3-methylsulfanyl-4-(trifluoromethyl)benzamide, reference compound], in experiment [1], the “control over A. theophrasti” value is given as “good control”. Further, the “control over E. crus galli” value in the experiment on Echinochloa crus-galli was “good control”.
As for `C#CC(c1ccc(F)cc1)C(CC(=O)OCC)c1c(F)cccc1F` (stereo not shown) [Compound 37, Ethyl 3-(2,6-difluorophenyl)-4-(4-fluorophenyl)hex-5-ynoate], in experiment [5], the “control compared with prior art compounds 27 and 27a” value is reported as “significantly better control”; the “control over all three weed species” value is “excellent control”.
